Earlier results in Sander's compilation of Henry's law constants (doi:10.1021/je049693f).
Several values for one entry are separate records, joined by “and”; a condition that tells them apart may be missing. Identical values can stand only once.

Experiment: Henry solubility constant Hcp at 298.15 K (mol/(m3 Pa))
Conditions: reference: Shen and Wania (2005); cited value

| SMILES | Henry solubility constant Hcp |
| --- | --- |
| Clc1ccc(C(c2ccc(Cl)cc2)C(Cl)(Cl)Cl)cc1 [1,1,1-trichloro-2,2-bis-(4-chlorophenyl)-ethane] | 0.91 |
| Clc1ccc(C(c2ccc(Cl)cc2)C(Cl)Cl)cc1 [1,1-dichloro-2,2-bis-(4-chlorophenyl)-ethane] | 1.5 and 2 |
| ClC(Cl)=C(c1ccc(Cl)cc1)c1ccc(Cl)cc1 [1,1-dichloro-2,2-bis-(4-chlorophenyl)-ethene] | 0.24 |
| ClC1=C(Cl)[C@]2(Cl)[C@H]3[C@H]([C@@H]4C=C[C@H]3C4)[C@@]1(Cl)C2(Cl)Cl [aldrin] | 0.067 and 0.043 |
| ClC1=C(Cl)[C@]2(Cl)[C@@H]3[C@@H](Cl)[C@@H](Cl)C[C@@H]3[C@@]1(Cl)C2(Cl)Cl [cis-chlordane] | 0.17 and 0.18 |
| ClC1=C(Cl)[C@]2(Cl)[C@@H]3[C@@H]4C[C@@H]([C@H]5O[C@@H]45)[C@@H]3[C@@]1(Cl)C2(Cl)Cl [dieldrin] | 1 and 0.91 |
| ClC1=C(Cl)[C@]2(Cl)[C@@H]3[C@H]4C[C@H]([C@@H]5O[C@H]45)[C@@H]3[C@@]1(Cl)C2(Cl)Cl [endrin] | 1.6 and 0.91 |
| ClC1=C(Cl)C2(Cl)C3C(Cl)C=CC3C1(Cl)C2(Cl)Cl (stereo not given) [heptachlor] | 0.033 and 0.026 |
| ClC1=C(Cl)C2(Cl)C3C4OC4C(Cl)C3C1(Cl)C2(Cl)Cl (stereo not given) [heptachlorepoxide] | 0.48 and 0.59 |
| ClC1=C(Cl)[C@]2(Cl)[C@H]3[C@H](Cl)[C@@H](Cl)C[C@H]3[C@@]1(Cl)C2(Cl)Cl [trans-chlordane] | 0.17 and 0.15 |
